Where a name gives a salt, the structure may show the parent alone.
Target: Na/K-ATPase
Assay: 3H-ouabain radioligand binding assay (RBA)
Conditions: for IC50: 3H-ouabain radioligand binding assay (RBA)
From the text: The potency of steroids to displace the labelled cardiac glycoside (i.e. ouabain) in the assay parallel their biological activity, that is their cardiac glycoside-like activity, in their ability to inhibit Na/K-ATPase and elicit characteristic cellular response.

SMILES | IC50 [nM] | IC50 (unit printed 'nm') [nM] | potency compared with Example 1 and Example 4 (comparison of IC50 values, in words)
C[C@@H]1O[C@@H](O[C@H]2CC[C@@]3(C)[C@H](CC[C@@H]4[C@@H]3CC[C@]3(C)[C@@H](CN)CC[C@]43O)C2)[C@H](O)[C@H](O)[C@H]1O [Example 1, 14-Hydroxy-3β-(α-L-rhamnopyranosyl)oxy-20-amino-21-nor-5β14β-pregnane hydrochloride] | 60 | 60 | 
CC1OC(OC2C(O)CC(OC3C(O)CC(OC4CCC5(C)C(CCC6C5CCC5(C)C(CN)CCC65O)C4)OC3C)OC2C)CC(O)C1O [Example 3, 14-Hydroxy-3β-(tris-β-D-digitoxosyl)oxy-20-amine-21-nor-5β,14β-pregnane] | 400 |  | 
C[C@@H]1O[C@@H](O[C@H]2CC[C@@]3(C)[C@H](CC[C@@H]4[C@@H]3CC[C@]3(C)[C@@H](C[N+](=O)[O-])CC[C@]43O)C2)[C@H](O)[C@H](O)[C@H]1O [Example 2, 14-Hydroxy-3β-(α-L-rhamnopyranosyl)oxy-20-nitro-21-nor-5β,14β-pregnane] | 11 | 11 | significantly greater than exhibited by the corresponding amino derivative (Example 1) and tridigitoxosyl derivative (Example 4)
CC1OC(OC2C(O)CC(OC3C(O)CC(OC4CCC5(C)C(CCC6C5CCC5(C)C(C[N+](=O)[O-])CCC65O)C4)OC3C)OC2C)CC(O)C1O [Example 4, 14-Hydroxy-3 β-(tris-β-D-digitoxosyl)oxy-20-nitro-21-nor-5β,14β-pregnane] | 60 |  | 

— patent US5270457A, “Cardiac steriod glycosides” (University of Manitoba, priority 1992, dated 1993)
